Entries after “also recorded” stand apart in the source; their conditions may differ.
How the values were obtained:
[1] = Toxicokinetics: robenacoxib concentration in blood by LC-MS/MS; assay type: in vivo, cat
Protocol: Approximately 0.5 mL of whole blood was collected from animals via the jugular vein and placed in tubes containing K2EDTA. Samples were collected within 30 minutes prior to dosing and at 0.75, and 4 hours postdose on Days 1, 4, 7, 10, 17, 30, and 37. A single 0.5 mL sample was collected from all animals 4 hours postdose on Days 8, 11, 14, 28, 31, and 34. The animals were fasted for predose and 0.75 hour blood collections and were fed 2 to 3 hours after dose administration. Samples were stored frozen (-10 to […]) within approximately 1 hour after collection until analyzed. Day 1 blood samples were inadvertently processed to plasma and therefore not analyzed.
Robenacoxib was quantitatively analyzed in blood using a validated analytical method involving liquid chromatography with tandem mass spectrometry detection (LC-MS/MS) that has been previously describe. Performance of the method was monitored by low, medium and high quality control samples, where inter-run %RSD (relative standard deviation) was 8.3, 7.4, and 5.8, respectively.
Only abbreviated toxicokinetic sampling was performed so as not to interfere with the primary objective of the study. Concentrations below the limit of quantification were considered 0.

cats = settings: in vivo
Protocol: Cageside observations were performed twice daily on all animals for morbidity, mortality, injury, and the availability of food and water. Detailed clinical observations were performed by trained technical staff twice per day beginning on Day − 2. Observations were at least six hours apart with the first occurring 1–2 hours after dose administration. Observations included, but were not limited to eyes, mucus membranes, respiratory system, circulatory system, autonomic and central nervous systems, somatomotor activity and behavior pattern. Body weight was measured on Day − 19 and weekly beginning Day − 14. Individual food consumption was measured daily beginning on Day − 7. Injection sites were evaluated for erythema, edema, heat, and pain response (i.e., vocalization upon palpation using a 3-point Likert scale) on each day of subcutaneous dosing prior to and 7 to 8 hours after dosing and once daily for three days following each dose administration. If any injection site was abnormal at the end of the observation period, additional assessments were carried out until the cat returned to normal or until end of the study.

With `CCc1ccc(Nc2c(F)c(F)cc(F)c2F)c(CC(=O)O)c1` [robenacoxib] the “plasma robenacoxib concentration (mean ± SD)” value ([1]; 1X, SC 2.0 mg/kg/day, Study Day 8, 4 h postdose) was 98.2 ± 60.7 ng/mL, the “plasma robenacoxib concentration (mean ± SD)” value ([1]; 1X, SC 2.0 mg/kg/day, Study Day 10, 0.75 h postdose) was 1124.1 ± 325.9 ng/mL and the “plasma robenacoxib concentration (mean ± SD)” value ([1]; 1X, SC 2.0 mg/kg/day, Study Day 10, 4 h postdose) was 79.1 ± 51.5 ng/mL. For the same molecule, the “plasma robenacoxib concentration (mean ± SD)” value ([1]; 1X, SC 2.0 mg/kg/day, Study Day 28, 4 h postdose) was 117.2 ± 86.1 ng/mL, the “plasma robenacoxib concentration (mean ± SD)” value ([1]; 1X, SC 2.0 mg/kg/day, Study Day 30, 0.75 h postdose) was 1358.6 ± 254.5 ng/mL and the “plasma robenacoxib concentration (mean ± SD)” value ([1]; 1X, SC 2.0 mg/kg/day, Study Day 30, 4 h postdose) was 94.8 ± 68.3 ng/mL. The “plasma robenacoxib concentration (mean ± SD)” value ([1]; 1X, oral ≥2.4 mg/kg/day, Study Day 4, 0.75 h postdose) was 2593.1 ± 909.5 ng/mL, the “plasma robenacoxib concentration (mean ± SD)” value ([1]; 1X, oral ≥2.4 mg/kg/day, Study Day 4, 4 h postdose) was 22.9 ± 11.6 ng/mL and the “plasma robenacoxib concentration (mean ± SD)” value ([1]; 1X, oral ≥2.4 mg/kg/day, Study Day 7, 0.75 h postdose) was 2591.3 ± 875.5 ng/mL. The “plasma robenacoxib concentration (mean ± SD)” value ([1]; 1X, oral ≥2.4 mg/kg/day, Study Day 7, 4 h postdose) was 26.9 ± 27.4 ng/mL, the “plasma robenacoxib concentration (mean ± SD)” value ([1]; 1X, oral ≥2.4 mg/kg/day, Study Day 11, 4 h postdose) was 34.9 ± 36.2 ng/mL and the “plasma robenacoxib concentration (mean ± SD)” value ([1]; 1X, oral ≥2.4 mg/kg/day, Study Day 14, 4 h postdose) was 19.0 ± 7.3 ng/mL. For the same molecule, the “plasma robenacoxib concentration (mean ± SD)” value ([1]; 1X, oral ≥2.4 mg/kg/day, Study Day 17, 0.75 h postdose) was 2811.3 ± 1502.1 ng/mL, the “plasma robenacoxib concentration (mean ± SD)” value ([1]; 1X, oral ≥2.4 mg/kg/day, Study Day 17, 4 h postdose) was 42.7 ± 49.7 ng/mL and the “plasma robenacoxib concentration (mean ± SD)” value ([1]; 1X, oral ≥2.4 mg/kg/day, Study Day 31, 4 h postdose) was 27.2 ± 16.0 ng/mL. For the same molecule, the “plasma robenacoxib concentration (mean ± SD)” value ([1]; 1X, oral ≥2.4 mg/kg/day, Study Day 34, 4 h postdose) was 35.3 ± 28.5 ng/mL, the “plasma robenacoxib concentration (mean ± SD)” value ([1]; 1X, oral ≥2.4 mg/kg/day, Study Day 37, 0.75 h postdose) was 2717.6 ± 1589.6 ng/mL and the “plasma robenacoxib concentration (mean ± SD)” value ([1]; 1X, oral ≥2.4 mg/kg/day, Study Day 37, 4 h postdose) was 90.4 ± 106.6 ng/mL. The “plasma robenacoxib concentration (mean ± SD)” value ([1]; 2X, SC 4.0 mg/kg/day, Study Day 8, 4 h postdose) was 233.6 ± 215.8 ng/mL, the “plasma robenacoxib concentration (mean ± SD)” value ([1]; 2X, SC 4.0 mg/kg/day, Study Day 10, 0.75 h postdose) was 1481.3 ± 359.7 ng/mL and the “plasma robenacoxib concentration (mean ± SD)” value ([1]; 2X, SC 4.0 mg/kg/day, Study Day 10, 4 h postdose) was 263.1 ± 249.4 ng/mL. For the same molecule, the “plasma robenacoxib concentration (mean ± SD)” value ([1]; 2X, SC 4.0 mg/kg/day, Study Day 28, 4 h postdose) was 236.6 ± 130.2 ng/mL, the “plasma robenacoxib concentration (mean ± SD)” value ([1]; 2X, SC 4.0 mg/kg/day, Study Day 30, 0.75 h postdose) was 1821.6 ± 817.9 ng/mL and the “plasma robenacoxib concentration (mean ± SD)” value ([1]; 2X, SC 4.0 mg/kg/day, Study Day 30, 4 h postdose) was 326.0 ± 276.7 ng/mL. For the same molecule, the “plasma robenacoxib concentration (mean ± SD)” value ([1]; 2X, oral ≥4.8 mg/kg/day, Study Day 4, 0.75 h postdose) was 5177.5 ± 2229.5 ng/mL, the “plasma robenacoxib concentration (mean ± SD)” value ([1]; 2X, oral ≥4.8 mg/kg/day, Study Day 4, 4 h postdose) was 54.2 ± 28.5 ng/mL and the “plasma robenacoxib concentration (mean ± SD)” value ([1]; 2X, oral ≥4.8 mg/kg/day, Study Day 7, 0.75 h postdose) was 3383.8 ± 1818.8 ng/mL. For the same molecule, the “plasma robenacoxib concentration (mean ± SD)” value ([1]; 2X, oral ≥4.8 mg/kg/day, Study Day 7, 4 h postdose) was 67.8 ± 58.5 ng/mL, the “plasma robenacoxib concentration (mean ± SD)” value ([1]; 2X, oral ≥4.8 mg/kg/day, Study Day 11, 4 h postdose) was 66.6 ± 57.4 ng/mL and the “plasma robenacoxib concentration (mean ± SD)” value ([1]; 2X, oral ≥4.8 mg/kg/day, Study Day 14, 4 h postdose) was 53.8 ± 59.0 ng/mL. The “plasma robenacoxib concentration (mean ± SD)” value ([1]; 2X, oral ≥4.8 mg/kg/day, Study Day 17, 0.75 h postdose) was 4160.0 ± 1166.0 ng/mL, the “plasma robenacoxib concentration (mean ± SD)” value ([1]; 2X, oral ≥4.8 mg/kg/day, Study Day 17, 4 h postdose) was 64.5 ± 54.7 ng/mL and the “plasma robenacoxib concentration (mean ± SD)” value ([1]; 2X, oral ≥4.8 mg/kg/day, Study Day 31, 4 h postdose) was 101.5 ± 152.6 ng/mL. The “plasma robenacoxib concentration (mean ± SD)” value ([1]; 2X, oral ≥4.8 mg/kg/day, Study Day 34, 4 h postdose) was 92.2 ± 58.5 ng/mL, the “plasma robenacoxib concentration (mean ± SD)” value ([1]; 2X, oral ≥4.8 mg/kg/day, Study Day 37, 0.75 h postdose) was 4009.4 ± 1765.2 ng/mL and the “plasma robenacoxib concentration (mean ± SD)” value ([1]; 2X, oral ≥4.8 mg/kg/day, Study Day 37, 4 h postdose) was 80.0 ± 62.6 ng/mL. The “plasma robenacoxib concentration (mean ± SD)” value ([1]; 3X, SC 6.0 mg/kg/day, Study Day 8, 4 h postdose) was 723.3 ± 250.8 ng/mL, the “plasma robenacoxib concentration (mean ± SD)” value ([1]; 3X, SC 6.0 mg/kg/day, Study Day 10, 0.75 h postdose) was 2461.3 ± 1075.8 ng/mL and the “plasma robenacoxib concentration (mean ± SD)” value ([1]; 3X, SC 6.0 mg/kg/day, Study Day 10, 4 h postdose) was 390.2 ± 236.2 ng/mL. For the same molecule, the “plasma robenacoxib concentration (mean ± SD)” value ([1]; 3X, SC 6.0 mg/kg/day, Study Day 28, 4 h postdose) was 394.8 ± 187.7 ng/mL, the “plasma robenacoxib concentration (mean ± SD)” value ([1]; 3X, SC 6.0 mg/kg/day, Study Day 30, 0.75 h postdose) was 2878.8 ± 831.4 ng/mL and the “plasma robenacoxib concentration (mean ± SD)” value ([1]; 3X, SC 6.0 mg/kg/day, Study Day 30, 4 h postdose) was 418.7 ± 246.2 ng/mL. The “plasma robenacoxib concentration (mean ± SD)” value ([1]; 3X, oral ≥7.2 mg/kg/day, Study Day 4, 0.75 h postdose) was 5511.8 ± 3389.8 ng/mL, the “plasma robenacoxib concentration (mean ± SD)” value ([1]; 3X, oral ≥7.2 mg/kg/day, Study Day 4, 4 h postdose) was 98.0 ± 48.6 ng/mL and the “plasma robenacoxib concentration (mean ± SD)” value ([1]; 3X, oral ≥7.2 mg/kg/day, Study Day 7, 0.75 h postdose) was 7267.5 ± 4006.6 ng/mL. The “plasma robenacoxib concentration (mean ± SD)” value ([1]; 3X, oral ≥7.2 mg/kg/day, Study Day 7, 4 h postdose) was 76.2 ± 32.2 ng/mL, the “plasma robenacoxib concentration (mean ± SD)” value ([1]; 3X, oral ≥7.2 mg/kg/day, Study Day 11, 4 h postdose) was 99.2 ± 36.3 ng/mL and the “plasma robenacoxib concentration (mean ± SD)” value ([1]; 3X, oral ≥7.2 mg/kg/day, Study Day 14, 4 h postdose) was 79.1 ± 38.0 ng/mL. For the same molecule, the “plasma robenacoxib concentration (mean ± SD)” value ([1]; 3X, oral ≥7.2 mg/kg/day, Study Day 17, 0.75 h postdose) was 5798.8 ± 3218.0 ng/mL, the “plasma robenacoxib concentration (mean ± SD)” value ([1]; 3X, oral ≥7.2 mg/kg/day, Study Day 17, 4 h postdose) was 108.5 ± 67.8 ng/mL and the “plasma robenacoxib concentration (mean ± SD)” value ([1]; 3X, oral ≥7.2 mg/kg/day, Study Day 31, 4 h postdose) was 94.7 ± 69.7 ng/mL. The “plasma robenacoxib concentration (mean ± SD)” value ([1]; 3X, oral ≥7.2 mg/kg/day, Study Day 34, 4 h postdose) was 84.2 ± 30.3 ng/mL, the “plasma robenacoxib concentration (mean ± SD)” value ([1]; 3X, oral ≥7.2 mg/kg/day, Study Day 37, 0.75 h postdose) was 6460.0 ± 3839.3 ng/mL and the “plasma robenacoxib concentration (mean ± SD)” value ([1]; 3X, oral ≥7.2 mg/kg/day, Study Day 37, 4 h postdose) was 123.2 ± 121.7 ng/mL. For the same molecule, the “oral administration vs subcutaneous injection, average concentrations” value ([1]; all dose groups) was “higher average 0.75 h concentrations and lower average 4 h concentrations”, the accumulation of robenacoxib ([1]; comparing concentrations 4 h post oral administration (Days 4, 7, 11, 14, 17, 31, 34, 37)) was “no accumulation observed after Day 4; also recorded: No robenacoxib accumulation was observed” and the Emesis (cats) was “observed once on Days 36 and 37”. The “duration of injection site edema post injection” value (cats) was “up to 120 hours”, the “injection site erythema, heat or pain” value (cats) was “no signs” and the “time to resolution of injection site changes” value (cats) was ≤ 72 h. The “occurrence of injection site edema vs control animals” value (cats; sc) was “significantly higher”.
